Assay results as given in patent US12077503B2, “Substituted cyclic amides and their use as herbicides” (FMC CORPORATION, priority 2015, dated 2024).

Experiments:
Format in all cases: in vivo
[1] = system: barnyardgrass (Echinochloa crus-galli); test: Test B flooded paddy test; conditions: Flood, 250 g ai/ha; 0 to 100 scale where 0 is no effect and 100 is complete control; 13 to 15 d
Method in brief: (§1)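 Evaluation by eye, against controls, occurred 13–15 d post-treatment in a greenhouse, using a 0 (no effect) to 100 (complete control) scale. Application was into the paddy water, 3 cm deep over the soil, on 2-leaf plants.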

rice (Oryra sativa) = test: Test B flooded paddy test; conditions: Flood, 250 g ai/ha; 0 to 100 scale where 0 is no effect and 100 is complete control; 13 to 15 d
Method in brief: as §1

[2] = system: ducksalad (Heteranthera limosa); test: Test B flooded paddy test; conditions: Flood, 250 g ai/ha; 0 to 100 scale where 0 is no effect and 100 is complete control; 13 to 15 d
Method in brief: as §1

[3] = system: sedge, umbrella (small-flower umbrella sedge, Cyperus difformis); test: Test B flooded paddy test; conditions: Flood, 250 g ai/ha; 0 to 100 scale where 0 is no effect and 100 is complete control; 13 to 15 d
Method in brief: as §1

[4] = system: barnyardgrass (Echinochloa crus-galli); test: Test A postemergence
Method in brief: (§2)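 Compounds were formulated in a non-phytotoxic solvent mixture with surfactant and applied as a preemergence directed soil spray after seeding, or sprayed postemergence over plants 2 to 10 cm tall at the one- to two-leaf stage. Evaluation after about 10 d compared treated with untreated controls, using a scale from 0 (no effect) to 100 (complete control).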

corn (Zea mays) = test: Test A postemergence
Method in brief: as §2

[5] = system: blackgrass (Alopecurus myosuroides); test: Test A postemergence
Method in brief: as §2

[6] = system: ryegrass, Italian (Italian ryegrass, Lolium multiflorum); test: Test A postemergence
Method in brief: as §2

[7] = system: wheat (Triticum aestivum); test: Test A postemergence
Method in brief: as §2

[8] = system: ragweed (common ragweed, Ambrosia elatior); test: Test A postemergence
Method in brief: as §2

[9] = system: Galium (catchweed bedstraw, Galium aparine); test: Test A postemergence
Method in brief: as §2

Kochia (Kochia scoparia) [10] = test: Test A postemergence
Method in brief: as §2

[11] = system: giant foxtail (Setaria faberii); test: Test A postemergence
Method in brief: as §2

[12] = system: pigweed (Amaranthus retroflexus); test: Test A postemergence
Method in brief: as §2

[13] = system: barnyardgrass (Echinochloa crus-galli); test: Test A preemergence; conditions: Preemergence; for Plant response rating, Barnyardgrass: 125 g ai/ha, visual injury after approximately 10 d, 0 to 100 scale where 0 is no effect and 100 is complete control; for Barnyardgrass plant response rating (0 to 100 scale, 0 is no effect, 100 is complete control): 500 g ai/ha, visual injury approx. 10 d
Method in brief: as §2

[14] = system: ryegrass, Italian (Italian ryegrass, Lolium multiflorum); test: Test A preemergence; conditions: Preemergence; for Plant response rating, Ryegrass, Italian: 125 g ai/ha, visual injury after approximately 10 d, 0 to 100 scale where 0 is no effect and 100 is complete control; for Ryegrass, Italian plant response rating (0 to 100 scale, 0 is no effect, 100 is complete control): 500 g ai/ha, visual injury approx. 10 d
Method in brief: as §2

[15] = system: ragweed (common ragweed, Ambrosia elatior); test: Test A preemergence; conditions: Preemergence; for Plant response rating, Ragweed: 125 g ai/ha, visual injury after approximately 10 d, 0 to 100 scale where 0 is no effect and 100 is complete control; for Ragweed plant response rating (0 to 100 scale, 0 is no effect, 100 is complete control): 500 g ai/ha, visual injury approx. 10 d
Method in brief: as §2

Kochia (Kochia scoparia) [16] = test: Test A preemergence; conditions: Preemergence; for Plant response rating, Kochia: 125 g ai/ha, visual injury after approximately 10 d, 0 to 100 scale where 0 is no effect and 100 is complete control; for Kochia plant response rating (0 to 100 scale, 0 is no effect, 100 is complete control): 500 g ai/ha, visual injury approx. 10 d
Method in brief: as §2

[17] = system: giant foxtail (Setaria faberii); test: Test A preemergence; conditions: Preemergence; for Plant response rating, Foxtail, Giant: 125 g ai/ha, visual injury after approximately 10 d, 0 to 100 scale where 0 is no effect and 100 is complete control; for Foxtail, Giant plant response rating (0 to 100 scale, 0 is no effect, 100 is complete control): 500 g ai/ha, visual injury approx. 10 d
Method in brief: as §2

[18] = system: pigweed (Amaranthus retroflexus); test: Test A preemergence; conditions: Preemergence; for Plant response rating, Pigweed: 125 g ai/ha, visual injury after approximately 10 d, 0 to 100 scale where 0 is no effect and 100 is complete control; for Pigweed plant response rating (0 to 100 scale, 0 is no effect, 100 is complete control): 500 g ai/ha, visual injury approx. 10 d
[19] = 125 g ai/ha, postemergence, visual rating after approx. 10 d, 0 to 100 scale (0 no effect, 100 complete control)
[20] = Postemergence, 500 g ai/ha, 0 to 100 scale where 0 is no effect and 100 is complete control

Structure (SMILES)	Plant response rating, Barnyardgrass [1]	Plant response rating, Rice (rice (Oryra sativa))	Plant response rating, Ducksalad [2]	Plant response rating, Sedge, Umbrella [3]	Plant response rating, Barnyardgrass [4, 19]	Plant response rating, Barnyardgrass [4, 20]	Plant response rating, Corn (corn (Zea mays); [19])	Plant response rating, Corn (corn (Zea mays); [20])	Plant response rating, Blackgrass [5, 19]	Plant response rating, Blackgrass [5, 20]	Plant response rating, Ryegrass, Italian [6, 19]	Plant response rating, Ryegrass, Italian [6, 20]	Plant response rating, Wheat [7, 19]	Plant response rating, Wheat [7, 20]	Plant response rating, Ragweed [8, 19]	Plant response rating, Ragweed [8, 20]	Plant response rating, Galium [9, 19]	Plant response rating, Galium [9, 20]	Plant response rating, Kochia (Kochia (Kochia scoparia) [10]; [19])	Plant response rating, Kochia (Kochia (Kochia scoparia) [10]; [20])	further results
O=C1NCC(c2cc(C(F)(F)F)ccc2F)C1C(=O)Nc1cccc(F)c1F (stereo not drawn) [Compound 594]	70	35	90	0	90	90	60	70	50	60	20	30	30	70	0	50	0	20	0	40	Plant response rating, Foxtail, Giant [11, 19]: 90; Plant response rating, Foxtail, Giant [11, 20]: 90; Plant response rating, Pigweed [12, 19]: 0; Plant response rating, Pigweed [12, 20]: 40; Plant response rating, Barnyardgrass [13]: 90; Barnyardgrass plant response rating (0 to 100 scale, 0 is no effect, 100 is complete control) [13]: 90; Plant response rating, Ryegrass, Italian [14]: 30; Ryegrass, Italian plant response rating (0 to 100 scale, 0 is no effect, 100 is complete control) [14]: 90; Plant response rating, Ragweed [15]: 0; Ragweed plant response rating (0 to 100 scale, 0 is no effect, 100 is complete control) [15]: 20; Plant response rating, Kochia (Kochia (Kochia scoparia) [16]): 0; Kochia plant response rating (0 to 100 scale, 0 is no effect, 100 is complete control) (Kochia (Kochia scoparia) [16]): 50; Plant response rating, Foxtail, Giant [17]: 90; Foxtail, Giant plant response rating (0 to 100 scale, 0 is no effect, 100 is complete control) [17]: 90; Plant response rating, Pigweed [18]: 0; Pigweed plant response rating (0 to 100 scale, 0 is no effect, 100 is complete control) [18]: 20
O=C1NCC(c2cc(C(F)(F)F)ccc2F)C1C(=O)Nc1ccc(F)cc1F (stereo not drawn) [Compound 595]	50	20	80	70	90	90	30	60	20	40	20	40	30	50	0	0	0	20	0	30	Plant response rating, Foxtail, Giant [11, 19]: 90; Plant response rating, Foxtail, Giant [11, 20]: 90; Plant response rating, Pigweed [12, 19]: 20; Plant response rating, Pigweed [12, 20]: 30; Plant response rating, Barnyardgrass [13]: 90; Barnyardgrass plant response rating (0 to 100 scale, 0 is no effect, 100 is complete control) [13]: 90; Plant response rating, Ryegrass, Italian [14]: 20; Ryegrass, Italian plant response rating (0 to 100 scale, 0 is no effect, 100 is complete control) [14]: 40; Plant response rating, Ragweed [15]: 0; Ragweed plant response rating (0 to 100 scale, 0 is no effect, 100 is complete control) [15]: 30; Plant response rating, Kochia (Kochia (Kochia scoparia) [16]): 40; Kochia plant response rating (0 to 100 scale, 0 is no effect, 100 is complete control) (Kochia (Kochia scoparia) [16]): 50; Plant response rating, Foxtail, Giant [17]: 90; Foxtail, Giant plant response rating (0 to 100 scale, 0 is no effect, 100 is complete control) [17]: 90; Plant response rating, Pigweed [18]: 30; Pigweed plant response rating (0 to 100 scale, 0 is no effect, 100 is complete control) [18]: 30
O=C1NCC(c2ccsc2Br)C1C(=O)Nc1ccccc1F (stereo not drawn) [Compound 597]	0	0	50	0	0	30	0	20	0	20	0	0	0	20	0	0	0	20	0	0	Plant response rating, Foxtail, Giant [11, 19]: 0; Plant response rating, Foxtail, Giant [11, 20]: 30; Plant response rating, Pigweed [12, 19]: 0; Plant response rating, Pigweed [12, 20]: 0; Plant response rating, Barnyardgrass [13]: 20; Barnyardgrass plant response rating (0 to 100 scale, 0 is no effect, 100 is complete control) [13]: 70; Plant response rating, Ryegrass, Italian [14]: 0; Ryegrass, Italian plant response rating (0 to 100 scale, 0 is no effect, 100 is complete control) [14]: 0; Plant response rating, Ragweed [15]: 0; Ragweed plant response rating (0 to 100 scale, 0 is no effect, 100 is complete control) [15]: 0; Plant response rating, Kochia (Kochia (Kochia scoparia) [16]): 0; Kochia plant response rating (0 to 100 scale, 0 is no effect, 100 is complete control) (Kochia (Kochia scoparia) [16]): 20; Plant response rating, Foxtail, Giant [17]: 20; Foxtail, Giant plant response rating (0 to 100 scale, 0 is no effect, 100 is complete control) [17]: 80; Plant response rating, Pigweed [18]: 0; Pigweed plant response rating (0 to 100 scale, 0 is no effect, 100 is complete control) [18]: 0
